Test results: patent US12291529B2, “Heterocyclic GLP-1 agonists” (Gasherbrum Bio, Inc., priority 2023, dated 2025)
≈ marks a conversion by molar mass, not a printed value.

Legend:
GLP-1 Receptor = GLP-1 Receptor (Homo sapiens, UniProt P43220); assay: GLP-1R agonist cAMP stimulation assay (HEK293/GLP1R/CRE-LUC cells, Cisbio cAMP dynamic 2 kit); format: cell-based
Outline: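 cAMP was measured by HTRF (d2/cryptate, 1 h RT, 665 and 615 nm). Beforehand, compounds in half-log series were incubated 30 min at 37 °C with GLP-1R/CRE-Luc HEK293 cells (1000 per well) in IBMX (0.5 mM)-containing DPBS/BSA. Activity scaled between vehicle and maximal control.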

FaSSIF solubility = format: physicochemical; conditions: FaSSIF buffer, 25 °C, fassif, thermodynamic from solid
Description: Stock solution of test article and control compound (chlorpromazine, astemizole, and phenytoin) were prepared in DMSO at 10 mM. 50 μL each of stock solutions were dried down, followed by reconstitution to 1 mM with FaSSIF buffer in the well. The incubation plate was shaked at 25° C., 1,100 rpm for 4 hours. And then, the samples were filtered by using the vacuum manifold. 10 μL aliquots from each well was transferred to a new 96-well plate and adjust the volume to 80 μL with blank buffer. Using a mixture of H2O and acetonitrile containing internal standard (1:1) to dilute the sample 100-fold, 500-fold and 2,500-fold. The samples are evaluated by LC/MS/MS analysis. All compounds were tested in singlet.

[1] = Caco-2 permeability / efflux study; format: in vitro ADME; conditions: human; for Papp at 2 h, 10 μM: Caco-2, pH 7.4, 10 μM, 37° C., pH 7.4, 0.5% BSA, read-out: Caco-2 Perm; for efflux ratio at 2 h, 10 μM: Caco-2, pH 7.4, Caco-2 efflux ratio
Description: Incubations with Caco-2 cell monolayers were performed in duplicate in a 96-well Transwell plate. Transport buffer solution (HBSS, 10 mM HEPES, pH 7.4, with 0.5% BSA) containing test article (10 μM), and either the control compounds metoprolol (10 μM), cimetidine (10 μM) and erythromycin (10 μM), was added to appropriate donor wells of the apical or basolateral plate. The transport buffer with DMSO was added to appropriate wells of receiver wells. Following incubation at 37° C. for 2 hours, the cell plates were removed and 50 μL samples from both apical and basolateral sides were transferred into new 96-well plates. Subsequently, 200 μL of acetonitrile containing internal standard was added to all samples to precipitate protein prior to analysis by UPLC-MS/MS. Lucifer yellow was used as a marker to confirm the integrity of the cell monolayers after 2 hours incubation.

[2] = Rat IV/PO PK study, Method A; format: in vivo, male Sprague Dawley (SD) rats; conditions: for AUC (ng · h/mL)_free form/dose: PO, 5 mpk, free form; for half-life / bioavailability: male, Sprague Dawley, plasma, Method A; for half-life: 1 mg/kg, elimination half life (IV); for bioavailability: PO vs IV, read-out: Bioavailablility (% F)
Description: Pharmacokinetics (PK) study was conducted on male Sprague Dawley (SD) rats by two delivery routes intravenous (IV) and/or oral gavage (PO). Rats in IV route (n=3) were free access to food and water. Rats in PO route (n=3) were fasted overnight and fed at 4 hrs post dosing. Test article was formulated in solution (10% solutol HS 15 in saline) for IV route and solution or suspension (10% solutol HS 15 in saline/water) for PO route, respectively. On the day of experiment, test article was administered via vein (e.g. foot dorsal vein) injection (commonly at 1 mg/kg and 5 mL/kg) for IV route or via oral gavage (commonly at 2 or 5 mg/kg and 5 mL/kg) for PO route, respectively. Blood samples were collected via serial bleeding at ˜8 time points from 0.083 to 24 hrs post dose. Approximate 150 μL of blood/time point was collected into K2EDTA tube via tail vein or jugular vein. Blood samples were put on wet ice and centrifuged to obtain plasma samples and plasma samples were submitted to LC-MS/MS for sample analysis. Pharmacokinetics parameters, including elimination half life (t1/2) (IV), area under the curve (AUC) and oral bioavailability (F %), etc. were calculated by non-compartmental model using WinNonlin.

[3] = Table 3, HEK293/GLP1R/CRE-LUC cells, 30 min

Sequence of GLP-1 Receptor (P43220 24-463, species assumed): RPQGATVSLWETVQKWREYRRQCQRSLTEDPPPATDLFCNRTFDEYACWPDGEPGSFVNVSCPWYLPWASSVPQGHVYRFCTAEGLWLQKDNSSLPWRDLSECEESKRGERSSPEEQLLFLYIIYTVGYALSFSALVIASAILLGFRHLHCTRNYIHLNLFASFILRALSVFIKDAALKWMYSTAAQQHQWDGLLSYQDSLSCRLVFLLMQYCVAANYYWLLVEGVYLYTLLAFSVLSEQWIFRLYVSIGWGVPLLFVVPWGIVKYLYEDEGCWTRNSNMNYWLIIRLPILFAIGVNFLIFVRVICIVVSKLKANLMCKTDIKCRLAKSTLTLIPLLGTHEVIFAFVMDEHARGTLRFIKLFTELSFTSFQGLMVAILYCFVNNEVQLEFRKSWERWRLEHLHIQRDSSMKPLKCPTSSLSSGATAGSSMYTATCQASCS

Row | SMILES | EC50 (GLP-1 Receptor; Table 4) [nM] | solubility at 4 h (FaSSIF solubility) [µM] | Papp at 2 h, 10 μM [1] [×10⁻⁶ cm/s] | efflux ratio at 2 h, 10 μM [1] | EC50 (GLP-1 Receptor; [3]) [nM] | AUC (ng · h/mL)_free form/dose [2] | half-life [2] [h] | bioavailability [2] [%]
1 | CCS(=O)(=O)c1ccc(-n2ccn(-c3c4c(nn3-c3cc(C)c(F)c(C)c3)CCN(C(=O)c3cc5cc(C6CCOCC6)ccc5n3[C@@]3(c5noc(=O)[nH]5)C[C@@H]3C)[C@H]4C)c2=O)cc1 [Compound C-1, reference compound] | 0.022 | 4 (≈ 3.5 µg/mL) | 0.126 | 51.7 |  |  |  | 
2 | CCS(=O)(=NC)c1ccc(-n2ccn(-c3c4c(nn3-c3cc(C)c(F)c(C)c3)CCN(C(=O)c3cc5cc(C6CCOCC6)ccc5n3[C@@]3(c5noc(=O)[nH]5)C[C@@H]3C)[C@H]4C)c2=O)c(F)c1 (single isomer, unassigned) [Compound 149] | 0.023 | 2.04 (≈ 1.85 µg/mL) | 0.33 | 26 | 0.023 | 4,276/5 mpk ng · h/mL | 1.6 | 32
3 | Cc1cc(-n2nc3c(c2-n2ccn(-c4ccc(S(=N)(=O)C5CCC5)cc4F)c2=O)[C@H](C)N(C(=O)c2cc4cc(C5CCOCC5)ccc4n2[C@@]2(c4noc(=O)[nH]4)C[C@@H]2C)CC3)cc(C)c1F (single isomer, unassigned) [Compound 168] | 0.011 |  | 0.21 | 50 | 0.011 |  |  | 
4 | CCS(=O)(=NC)c1ccc(-n2ccn(-c3c4c(nn3-c3cc(C)c(F)c(C)c3)CCN(C(=O)c3cc5cc([C@H]6CCOC(C)(C)C6)ccc5n3[C@@]3(c5noc(=O)[nH]5)C[C@@H]3C)[C@H]4C)c2=O)c(F)c1C (single isomer, unassigned) [Compound 216] | 0.068 | 7.9 (≈ 7.49 µg/mL) | 0.32 | 15.7 | 0.065 |  |  | 
5 | CN=S(=O)(c1ccc(-n2ccn(-c3c4c(nn3-c3cc(C)c(F)c(C)c3)CCN(C(=O)c3cc5cc(C6CCOCC6)ccc5n3[C@@]3(c5noc(=O)[nH]5)C[C@@H]3C)[C@H]4C)c2=O)c(F)c1)C1CC1 (single isomer, unassigned) [Compound 221] | 0.031 | 4.05 (≈ 3.72 µg/mL) | 0.34 | 38.5 | 0.03 |  |  | 
6 | CCS(=O)(=NC)c1ccc(-n2ccn(-c3c4c(nn3-c3cc(C)c(F)c(C)c3)CCN(C(=O)c3cc5cc(C6CCOCC6)ccc5n3[C@@]3(c5noc(=O)[nH]5)C[C@@H]3C)[C@H]4C)c2=O)c(Cl)c1 (single isomer, unassigned) [Compound 151] | 0.072 |  | 0.3 | 36.8 | 0.072 |  |  | 
7 | CCS(=O)(=NC)c1ccc(-n2ccn(-c3c4c(nn3-c3cc(C)c(F)c(C)c3)CCN(C(=O)c3cc5cc(C6CCOCC6)ccc5n3[C@@]3(c5noc(=O)[nH]5)C[C@@H]3C)[C@H]4C)c2=O)cc1 (single isomer, unassigned) [Compound 144] | 0.017 | 2.56 (≈ 2.27 µg/mL) | 0.36 | 24.1 | 0.017 |  |  | 
8 | Cc1cc(-n2nc3c(c2-n2ccn(-c4ccc(S(=O)(=O)C5CC5)cc4)c2=O)[C@H](C)N(C(=O)c2cc4cc(C5CCOCC5)ccc4n2[C@@]2(c4noc(=O)[nH]4)C[C@@H]2C)CC3)cc(C)c1F [Compound C-2, reference compound] | 0.043 | 9.3 (≈ 8.25 µg/mL) | < 0.05 | > 62.6 |  |  |  | 
9 | Cc1cc(-n2nc3c(c2-n2ccn(-c4ccc(S(=N)(=O)C5CCC5)cc4F)c2=O)[C@H](C)N(C(=O)c2cc4cc([C@H]5CCOC(C)(C)C5)ccc4n2[C@@]2(c4noc(=O)[nH]4)C[C@@H]2C)CC3)cc(C)c1F (single isomer, unassigned) [Compound 183] | 0.011 |  | 0.19 | 45 | 0.001 |  |  | 
10 | CN=S(C)(=O)c1ccc(-n2ccn(-c3c4c(nn3-c3cc(C)c(F)c(C)c3)CCN(C(=O)c3cc5cc(C6CCOCC6)ccc5n3[C@@]3(c5noc(=O)[nH]5)C[C@@H]3C)[C@H]4C)c2=O)cc1 (single isomer, unassigned) [Compound 121] | 0.015 | 7.3 (≈ 6.38 µg/mL) | 0.1 | 90.8 | 0.019 |  |  | 
11 | Cc1cc(-n2nc3c(c2-n2ccn(-c4ccc(S(=N)(=O)C5CC5)cc4F)c2=O)[C@H](C)N(C(=O)c2cc4cc([C@H]5CCOC(C)(C)C5)ccc4n2[C@@]2(c4noc(=O)[nH]4)C[C@@H]2C)CC3)cc(C)c1F (single isomer, unassigned) [Compound 181] | 0.014 |  | 0.24 | 38 | 0.018 | 6,097/5 mpk ng · h/mL | 1.66 | 30
12 | CN=S(=O)(c1ccc(-n2ccn(-c3c4c(nn3-c3cc(C)c(F)c(C)c3)CCN(C(=O)c3cc5cc([C@H]6CCOC(C)(C)C6)ccc5n3[C@@]3(c5noc(=O)[nH]5)C[C@@H]3C)[C@H]4C)c2=O)c(F)c1Cl)C1CC1 (single isomer, unassigned) [Compound 214] | 0.033 | 9.9 (≈ 9.71 µg/mL) | 0.34 | 11.4 | 0.033 |  |  | 
13 | CNS(=O)(=O)c1ccc(-n2ccn(-c3c4c(nn3-c3cc(C)c(F)c(C)c3)CCN(C(=O)c3cc5cc(C6CCOCC6)ccc5n3[C@@]3(c5noc(=O)[nH]5)C[C@@H]3C)[C@H]4C)c2=O)cc1 [Compound C-3, reference compound] |  | 6.45 (≈ 5.65 µg/mL) | 0.05 | 78.1 |  |  |  | 
14 | CN=S(=O)(c1ccc(-n2ccn(-c3c4c(nn3-c3cc(C)c(F)c(C)c3)CCN(C(=O)c3cc5cc([C@H]6CCOC(C)(C)C6)ccc5n3[C@@]3(c5noc(=O)[nH]5)C[C@@H]3C)[C@H]4C)c2=O)cc1NC)C1CC1 (single isomer, unassigned) [Compound 218] | 0.059 |  | 0.09 | 20.7 | 0.083 |  |  | 
15 | Cc1cc(-n2nc3c(c2-n2ccn(-c4ccc(N5CCCS5(=O)=O)cc4)c2=O)[C@H](C)N(C(=O)c2cc4cc(C5CCOCC5)ccc4n2[C@@]2(c4noc(=O)[nH]4)C[C@@H]2C)CC3)cc(C)c1F [Compound C-4, reference compound] | 0.14 | 5.38 (≈ 4.85 µg/mL) | 0.18 | 16.7 |  |  |  | 
16 | Cc1cc(-n2nc3c(c2-n2ccn(-c4ccc5c(c4F)CCN=S5(C)=O)c2=O)[C@H](C)N(C(=O)c2cc4cc([C@H]5CCOC(C)(C)C5)ccc4n2[C@@]2(c4noc(=O)[nH]4)C[C@@H]2C)CC3)cc(C)c1F (single isomer, unassigned) [Compound 185] |  |  |  |  | 0.016 |  |  | 
